According to ChEMBL document CHEMBL5728730, “Tri-substituted imidazoles for the inhibition of TGF beta and methods of treatment” (2021):

What follows are compounds tested against T1, TGF-beta receptor type-1 (Homo sapiens, UniProt P36897) (assay: LanthaScreen™Eu Kinase Binding Assay TGFBR1 (ALK5): Exemplified compounds were screened in 1% DMSO (final concentration) by 3-fold serial dilutions from 10,000 nM to 0.316 nM to produce an IC50 or at single concentrations of 10,000, 1000 and 100 nM according to the following protocol. To low volume, white 384-well plates (Greiner Cat #784207) add 160 nL 100× compound in 100% DMSO, 3.84 uL kinase buffer (50 mM HEPES, pH 7.5, 0.01% BRIJ-35, 10 mM MgCl2, 1 mM EGTA), 8 uL 2× kinase/antibody mixture in kinase buffer (final ALK5 concentration of 5 nM; final Eu-anti-GST antibody concentration of 2 nM), 4 uL 4× Tracer #178 in kinase buffer (final concentration of 5 nM). Gently shake the plates for 30 seconds and incubate at room temperature for 1 hour before reading fluorescence on a plate reader. Percent inhibition was determined compared to DMSO only control (maximal ALK5 tracer binding) and sigmoidal dose response curve fit yielded IC50 values as indicated in Table 2.).
T1 sequence (P36897 whole entry): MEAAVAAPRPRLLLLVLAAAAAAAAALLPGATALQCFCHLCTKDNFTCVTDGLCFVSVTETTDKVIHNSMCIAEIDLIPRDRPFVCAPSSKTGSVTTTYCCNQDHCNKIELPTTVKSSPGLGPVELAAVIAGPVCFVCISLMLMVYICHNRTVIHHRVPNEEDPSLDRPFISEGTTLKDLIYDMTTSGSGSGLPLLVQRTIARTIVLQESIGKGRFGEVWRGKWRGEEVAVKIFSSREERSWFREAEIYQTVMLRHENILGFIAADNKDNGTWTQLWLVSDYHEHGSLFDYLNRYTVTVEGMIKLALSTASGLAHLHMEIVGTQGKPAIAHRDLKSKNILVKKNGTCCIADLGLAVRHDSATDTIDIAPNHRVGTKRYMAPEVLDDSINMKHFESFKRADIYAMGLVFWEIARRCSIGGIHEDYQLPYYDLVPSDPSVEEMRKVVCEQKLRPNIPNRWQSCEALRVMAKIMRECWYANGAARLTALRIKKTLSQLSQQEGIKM

| IC50 [nM] | Compound |
| --- | --- |
| 138 | CC(C)n1ccc(-c2nc(CNc3cc(F)cc(C#N)c3)[nH]c2-c2ccc3nccnc3c2)n1 |
| 46.4 | CC(C)n1ccc(-c2nc(CNc3cc(F)cc(F)c3)[nH]c2-c2ccc3nccnc3c2)n1 |
| < 1000 | CC(C)n1ccc(-c2nc(-c3ccc(C(N)=O)cc3)[nH]c2-c2ccc3ncnn3c2)n1 |
